US20260365692A1, “COMPOSITIONS COMPRISING PROTEINS DISSOLVED IN FLUORINATED SOLVENTS, AND METHODS OF MAKING AND USING THE SAME” (priority 2022, published 2026)

Tests used:
[1] = test system: HepG2 cells; test: HepG2 MTT viability assay (Example 2); type: cell-based, human; details: HepG2, 37 °C overnight
Protocol: FIG. 28 depicts a viability assay for HepG2 cells treated with two first generation compounds and two second generation compounds.
Next, viability assays were performed by seeding HepG2 (liver cancer cell line) onto 96 well plates and allowing the cells to adhere overnight. DMEM cell culture media containing various concentrations of each FTag compound were then added, and the plates were incubated at 37 °C overnight. The supernatant was then removed and MTT viability dyes were added to each well and allowed to convert for 2 hours. Dye absorbance for each condition was then compared to positive (20% DMSO) and negative (blank media) controls to calculate % viability (FIG. 28).

[2] = test system: seven model proteins (Hb, GFP, BSA, β-Gal, IgG, TFN, URE); test: Fluorochemical-mediated dispersion of test proteins into perfluorohexane; type: physicochemical; details: into PFH, 1000:1 molar ratio with protein
From the text: Only the rabbit IgG Fc fragment is shown.
For PFAS amphiphiles, the combination of polar head group and fluorophilic tail additionally leads to their preferential assembly at water-fluorous interfaces. Based on these unique properties, it was speculated that PFAS compounds may noncovalently associate with proteins to mediate their phase separation into fluorous media. To test this, a screening assay was developed to qualitatively investigate the binding affinity of a library of perfluorinated chemicals with seven model proteins, which include human hemoglobin (Hb), green fluorescent protein (GFP), bovine serum albumin (BSA), (β-Galactosidase (β-Gal), rabbit serum immunoglobulin (IgG), bovine apo-transferrin (TFN), and urease (URE). This group of model proteins captures an array of physicochemical properties ranging in molecular weight, solvent accessible surface area (SASA), isoelectric point (pI), and hydrodynamic radii. A corresponding perfluorinated small molecule test set was selected to contain a plurality of functional groups, linear perfluorocarbon chain lengths, and cyclic or aromatic geometries (FIGS. 1-7). Selection of these compounds was based on their potential to form noncovalent bonds (i.e., hydrogen or ionic) with the solvent exposed protein surfaces. […] These three linear PFAS chemicals are currently regulated by the US Environmental Protection Agency based on their reproductive, immune, and hepatic toxicity (References: 44-46). In sum, the structural and biochemical diversity represented in the protein and fluorochemical libraries was rationally selected to allow structure-function-performance relationships to be ascertained from binding studies.

[3] = test system: β-Galactosidase (β-Gal); details: into PFH, 1000:1 molar ratio with protein
From the text: FIGS. 8A-8G depict fluorochemical-mediated dispersion of test proteins hemoglobin (Hb, FIG. 8A), green fluorescent protein (GFP, FIG. 8B), bovine serum albumin (BSA, FIG. 8C), β-Galactosidase (β-Gal, FIG. 8D), rabbit serum immunoglobulin G (IgG, FIG. 8E), bovine apo-transferrin (TFN, FIG. 8F), and urease (URE, FIG. 8G) into perfluorohexane. […] The compound ‘0’ indicates a control sample absent of an additive. The crystal structure of each protein candidate tested is shown in the inset of each of FIGS. 8A-8G. Only the rabbit IgG Fc fragment is shown.
To investigate PFAS-protein binding avidity, an assay was developed to measure the concentration of protein dispersed into perfluorohexane (PFH) in the presence of each fluorochemical compound (1000:1 molar ratio with protein). Protein dispersion into PFH served as a quantitative measure of PFAS-protein avidity, where the amount of dispersed protein was normalized to its initial concentration to evaluate binding interactions.

[4] = test system: E. coli, P. aeruginosa, K. pneumoniae, Methicillin-resistant S. aureus (MRSA), C. albicans; test: Contamination of BSA formulations by bacterial and fungal pathogens
From the text: FIG. 53 depicts representative photographs of agar plates streaked with BSA formulations in PBS (top panel) or PFOc (lower panel) contaminated with the indicated pathogen. MRSA=methicillin resistant Staphylococcus aureus.
Evaluating PFOc Protein Formulation Resilience Against Contaminants Aqueous protein formulations can be compromised by contaminating pathogens, or the biologic inactivated by exposure to environmental disinfectants and acids. In the context of bacterial and fungal contamination, it was hypothesized that removal of the water solvent required for microorganismal survival should make the PFOc protein formulations intrinsically sterile. A hypodermic needle was streaked across a lawn of the human bacterial pathogens E. coli, P. aeruginosa, K. pneumoniae or Methicillin-resistant S. aureus (MRSA), as well as the human fungal pathogen C. albicans prepared on agar. The contaminated needle was then submerged into BSA protein formulations prepared in either PBS or PFOc solvents. Contaminated liquid formulations were incubated at 37 °C overnight and replated onto agar plates to assess growth.

[5] = Temperature-dependent circular dichroism of proteins in PFOc or PBS (Example 4); type: physicochemical
Protocol: FIGS. 39A-39B depict temperature-dependent CD spectra of the indicated test protein solubilized in PFOc using the PD-7 dispersant, or PBS as a control.
FIG. 40 depicts the change in minimum CD ellipticity over the 40 °C-85 °C temperature interval for the indicated protein dissolved in either PBS or PFOc.
To determine structural integrity of proteins in aqueous and fluorinated environments at elevated temperatures, circular dichroism (CD) was used to probe secondary structure. Proteins were either diluted in PBS (aqueous) or dispersed in PFOc at the same designated concentrations according to protocol described above. For aqueous samples, dissolved proteins were heated between 40 °C to 90 °C, and their corresponding CD spectra at each temperature was measured. For PFOc samples, each of the PFOc dispersed proteins were subjected to heat treatment at 40, 55, 70, and 85 °C for 15 minutes. After that, dispersed proteins were eluted into PBS before having their CD spectra taken. Data is shown by representative ellipticity at each temperature depicted by distinct colors.

[6] = test system: E. coli; test: Bacterial contamination of BSA samples with E. coli; details: 37 °C overnight
Protocol: FIG. 24A: Diagram of contamination experiment. FIG. 24B: Samples in PBS (top) and PFOc (bottom) after contamination with E. coli.
To model bacterial contamination of samples a hypodermic needle was streaked across a lawn of plated E. coli (FIG. 24A). The contaminated needle was then dipped into PBS or PFOc (containing PFNA) samples with dispersed BSA protein to contaminate, and samples incubated at 37 °C overnight to allow for bacterial growth. An aliquot of the solution was then streaked onto LB-agar plates and incubated at 37 C overnight to allow for bacterial colony formation.

[7] = Thermal stability of proteins in PFNA/PFOc (bioactivity after heating); type: physicochemical; details: PFNA/PFOc mixture compared to aqueous solution, 30 min heating
Protocol: FIGS. 16A-16C depict that the thermal stability of β-gal, GFP, and Trypsin is enhanced when the proteins are dissolved in a PFNA/PFOc mixture, compared to aqueous solutions of the proteins.
PFNA enhanced thermal stability in PFOc Differential scanning calorimetry (DSC) measurements were performed on 5 test proteins dissolved in either PBS (Aq.) or Perfluorooctane (PFOc). PFNA dispersant was added only for the PFOc conditions. DSC was performed at 2 °C/min ramp from 40 °C-100 °C. Melting temperature (Tm) was determined based on positive inflection of heat capacity curve, indicating protein unfolding (FIG. 15). Change in melting temperature (ATm (°C)) represented the difference in Tm between aqueous (Aq.) and PFOc data. Tm for GFP in PFOc could not be achieved at the maximum temperature of 100 °C for the DSC experiments. Each protein was dissolved in PBS (Aq.) or PFNA/PFOc mixture. Dissolved proteins were heated to 75 °C (β-gal), 90 °C (GFP) or 80 °C (Trypsin); treatment temperatures were determined based on aqueous melting temperatures for each protein. Positive controls were maintained at room temperature (25 °C). […] Bioactivity was evaluated then via fluorescence measurements for GFP, or using colorimetric substrate conversion assays (ONPG for β-gal, BAEE for Trypsin). […]

[8] = Protein activity after elevated temperature exposure (Example 4); type: physicochemical; details: 90 °C for 30 minutes
Protocol: A group of enzyme proteins, β-Gal and Trypsin was chosen for this study. β-Gal and Trypsin were diluted in PBS or dispersed in PFOc at 1 μM and 10 μM, respectively. Next, a subset of samples was subjected to elevated temperature condition (90 °C) well beyond their native denaturation temperature for 30 minutes. After that, samples were allowed to cool down to room temperature before retrieval. For PFOc samples, proteins were extracted into PBS before performing the ensuing assays. To determine the enzymatic activity, an equal volume of protein samples was added to their substrates dissolved in PBS (4 mg/mL ONPG for β-Gal or 1 mg/mL BAEE for Trypsin). After incubation, ONPG and BAEE substrate conversions were measured by taking absorbance using a microplate reader at 420 nm or 400 nm, respectively. In case of intrinsic fluorescence, GFP was similarly prepared, and heat treated. After GFP samples were retrieved, fluorescent intensity was taken at λex=490 nm, λem=520 nm. The change in protein activity was presented by normalizing to spectrometric readings of each protein dissolved in PBS without being subjected to heat (room temperature). […] This supports the assertion that the fluorous coating and solvent environments, together, serve to constrain the conformational flexibility of the dispersed protein and, as a result, increase its melting temperature.

[9] = dispersed in PFOc using PD-7, heated up to 85 °C

2,2-(1,1,1,2,2,3,3,4,4,5,5,6,6-tridecafluorooctane)-2-cyanoacetic acid [Compound 21]
IC50 [1]: 610 µM

O=C(O)C(F)(F)C(F)(F)C(F)(F)C(F)(F)C(F)(F)C(F)(F)C(F)(F)F [Compound 6, perfluorooctanoic acid]
capacity to disperse proteins into PFH / association with proteins (in words) [2]: significantly compromised its association with most proteins

O=C(O)C(F)(F)C(F)(F)C(F)(F)C(F)(F)C(F)(F)C(F)(F)C(F)(F)C(F)(F)C(F)(F)F [Compound 8, perfluorodecanoic acid]
capacity to disperse proteins into PFH / association with proteins (in words) [2]: significantly compromised its association with most proteins

O=C(O)C(F)(F)C(F)(F)C(F)(F)C(F)(F)C(F)(F)C(F)(F)C(F)(F)C(F)(F)C(F)(F)C(F)(F)C(F)(F)F [Compound 10, perfluorododecanoic acid]
dispersion efficiency of β-Gal (in words) [3]: stepwise increase in dispersion efficiency

O=C(O)C(F)(F)C(F)(F)C(F)(F)C(F)(F)C(F)(F)C(F)(F)C(F)(F)C(F)(F)C(F)(F)C(F)(F)C(F)(F)C(F)(F)C(F)(F)F [Compound 11, perfluorotetradecanoic acid]
dispersion efficiency of β-Gal (in words) [3]: sharp drop off in dispersion efficiency

O=C(O)C1(F)C(F)(F)C(F)(F)C(F)(F)C(F)(F)C1(F)F [Compound 13, perfluorocyclohexanecarboxylic acid]
capacity to disperse proteins into PFH / association with proteins (in words) [2]: capacity to disperse many of the protein candidates into PFH

O=S(=O)(O)C(F)(F)C(F)(F)C(F)(F)C(F)(F)C(F)(F)C(F)(F)C(F)(F)C(F)(F)F [Compound 17, perfluorooctanesulfonic acid]
capacity to disperse proteins into PFH / association with proteins (in words) [2]: capacity to disperse many of the protein candidates into PFH

NCC(F)(F)C(F)(F)C(F)(F)C(F)(F)C(F)(F)C(F)(F)C(F)(F)C(F)(F)F [Compound 20, 1H,1H-perfluorononylamine]
capacity to disperse proteins into PFH / association with proteins (in words) [2]: capacity to disperse many of the protein candidates into PFH

BSA: bovine serum albumin (BSA)
contamination ([4]; BSA in PBS): readily contaminated by all five pathogens
sterility after contamination ([4]; BSA in PFOc): remained sterile
change in secondary structure [5, 9]: minimal changes in secondary structure
E. coli colony growth after contamination ([6]; BSA in PBS): Visible E. coli colony growth
sterility after contamination ([6]; BSA in PFOc (containing PFNA)): remained sterile

B1: Trypsin: bovine trypsin (protein, UniProt P00760 24-246, looked up)
Serine protease 1: IVGGYTCGANTVPYQVSLNSGYHFCGGSLINSQWVVSAAHCYKSGIQVRLGEDNINVVEGNEQFISASKSIVHPSYNSNTLNNDIMLIKLKSAASLNSRVASISLPTSCASAGTQCLISGWGNTKSSGTSYPDVLKCLKAPILSDSSCKSAYPGQITSNMFCAGYLEGGKDSCQGDSGGPVVCSGKLQGIVSWGSGCAQKNKPGVYTKVCNYVSWIKQTIASN
thermal stability [7]: enhanced
change in activity after heating ([8]; PFOc dispersed): no statistically significant change in activity
loss of bioactivity after heating ([8]; saline): > 90%
change in secondary structure [5, 9]: minimal changes in secondary structure
change in secondary structure ([5]; saline (PBS) control, 40-85 °C): minimal change in structure
